Data as given in patent US4393228A, “Epoxysuccinic acid derivatives” (Taisho Pharmaceutical Co., Ltd., priority 1977, dated 1983).
Where a name gives a salt, the structure may show the parent alone.

Target: T1, papain (Carica papaya, UniProt P00784)
T1 construct: purchased Sigma Chem. Co
T1 sequence (P00784 134-345): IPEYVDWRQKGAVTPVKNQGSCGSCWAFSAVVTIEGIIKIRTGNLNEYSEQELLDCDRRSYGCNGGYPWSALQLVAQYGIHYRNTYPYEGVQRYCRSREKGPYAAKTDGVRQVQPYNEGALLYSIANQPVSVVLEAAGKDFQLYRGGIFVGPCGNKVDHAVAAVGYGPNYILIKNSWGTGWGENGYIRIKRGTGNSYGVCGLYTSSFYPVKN
Assay: Papain inhibitory activity (milk casein digestion)
Type: biochemical
Conditions: papain 80 μg/ml 0.5 ml, cysteine, pH 6.8, 1% milk casein, 40° C., 10 minutes
Experimental: Papain inhibitory activity of the compounds of this invention was assayed as follows: To 0.5 ml of a solution of papain (80 μg/ml, Sigma Chem. Co., 2x cry.), were added 0.25 ml of 40 mM cysteine dissolved in 20 mM disodium ethylenediamine tetraacetic acid solution adjusted pH to 6.8 with sodium hydroxide and 0.25 ml of 33 mM phosphate buffer (pH 6.8) with or without inhibitor. After incubation at 40° C. for 15 minutes, the resulting mixture was added to 5 ml of 1% milk casein solution in the same buffer as described above, and further incubated at 40° C. for 10 minutes. Then the mixture was mixed with 5 ml of 0.44 M trichloroacetic acid solution and followed by filtration with a sheet of Toyo filter paper No. 4. The extinction of the filtrate was read at 280 nm. The percent inhibition was calculated from the formula, 100 x (B-A)/B; wherein B stands for the absorbance without inhibitor and A for the absorbance with inhibitor. The compound Nos. in Table 1 are as defined in Examples as described hereinafter.

SMILES | ID50 (amount of inhibitor for 50% inhibition)
O=C(O)[C@@H]1O[C@H]1C(=O)OCc1cccc(C(F)(F)F)c1 (relative stereo) [EP-100, 3'-trifluoromethylbenzyl potassium epoxysuccinate] | 0.10 γ
O=C(O)[C@@H]1O[C@H]1C(=O)OCCC1CCCC1 (relative stereo) [EP-60, 2-cyclopentaneethylpotassium epoxysuccinate] | 0.10 γ
CC(C)C[C@H](NC(=O)C1OC1C(=O)OC1CCCC1Br)C(=O)OCc1ccccc1 (stereo partly drawn) [EP-214, N-[3-(2'-trans-bromocyclopentyloxy)-carbonyloxirane-2-carbonyl]-L-leucine benzyl ester] | 0.13 γ
CCOC(=O)[C@@H](NC(=O)C1OC1C(=O)OCc1cccc2ccccc12)C(C)C (some centres unmarked) [EP-219] | 2.12 γ
O=C(NCCC[C@H](NC(=O)C1OC1C(=O)O)C(=O)OCc1ccccc1)OCc1ccccc1 (stereo partly drawn) [EP-196, N^α -(3-carboxyoxiane-2-carbonyl)-N^δ -carbobenzoxy-L-ornithine benzyl ester potassium salt] | 0.11 γ
CCOC(=O)C1OC1C(=O)N[C@@H](CCCNC(=O)c1ccccc1)C(=O)OCc1ccccc1 (stereo partly drawn) [EP-173, N^α -(3-ethoxycarbonyloxirane-2-carbonyl)-N^δ -benzoyl-L-ornithine benzyl ester] | 5.80 γ
CCCCOC(=O)C1OC1C(=O)N[C@@H](CCCNC(=O)OCc1ccccc1)C(=O)OCc1ccccc1 (stereo partly drawn) [EP-183, N^α -(3-n-buthoxycarbonyloxirane-2-carbonyl)-N^δ -carbobenzoxy-L-ornithine benzyl ester] | 4.46 γ
O=C(O)[C@@H]1O[C@H]1C(=O)OCCC12CC3CC(CC(C3)C1)C2 (relative stereo) [EP-50, 2-(1-adamantane)ethyl potassium epoxysuccinate] | 0.09 γ
CCOC(=O)CCCNC(=O)[C@@H]1O[C@H]1C(=O)OCc1ccc(Cl)cc1 (relative stereo) [EP-189, N-(3-p-chlorobenzyloxycarbonyloxirane-2-carbonyl)-γ-aminobutylic acid ethyl ester] | 10.58 γ
CCOC(=O)C1OC1C(=O)N[C@@H](CCCCN)C(=O)O (stereo partly drawn) [EP-201, N-(3-ethoxycarbonyloxirane-2-carbonyl)-L-lysine] | 25.51 γ
O=C(O)[C@H]1O[C@@H]1C(=O)OCc1ccccc1I (relative stereo) [EP-106, o-iodobenzyl potassium epoxysuccinate] | 0.14 γ
CCOC(=O)C1OC1C(=O)N[C@@H](CCCCNC(=O)OCc1ccccc1)C(=O)OCc1ccccc1 (stereo partly drawn) [EP-163, N^α -(3-ethoxycarbonyloxirane-2-carbonyl)-N^ε -carbobenzoxy-L-lysine benzyl ester] | 29.07 γ
O=C(O)[C@@H]1O[C@H]1C(=O)OC1CC1 (relative stereo) [EP-28, cyclopropyl potassium epoxysuccinate] | 0.80 γ
CC(C)(C)OC(=O)[C@H](Cc1ccccc1)NC(=O)C1OC1C(=O)OCC1CCCO1 (stereo partly drawn) [EP-218, N-[3-tetrahydrofurfuryloxycarbonyloxirane-2-carbonyl]-L-phenylalanine t-butyl ester] | 1.65 γ
CCCCOC(=O)[C@H](CC(C)C)NC(=O)C1OC1C(=O)OCc1ccco1 (stereo partly drawn) [EP-217, N-[3-furfuryloxycarbonyloxirane-2-carbonyl]-L-leucine n-butyl ester] | 0.25 γ
O=C(O)[C@@H]1O[C@H]1C(=O)OCC12CC3CC(CC(C3)C1)C2 (relative stereo) [EP-48, 1-adamantanemethyl potassium epoxysuccinate] | 0.08 γ

SMILES | ID50 (amount of inhibitor for 50% inhibition)
O=C(OCc1ccccc1I)[C@@H]1O[C@H]1C(=O)OCc1ccccc1I (relative stereo) [EP-105, di-o-iodobenzyl epoxysuccinate] | 0.40 γ
O=C(O)[C@H]1O[C@@H]1C(=O)OCc1ccc(I)cc1Br (relative stereo) [EP-120, 2'-bromo-4'-iodobenzyl potassium epoxysuccinate] | 0.40 γ
O=C(OCc1ccc(Cl)cc1Cl)[C@H]1O[C@@H]1C(=O)OCc1ccc(Cl)cc1Cl (relative stereo) [EP-117, di-2',4'-dichlorobenzyl epoxysuccinate] | 2.55 γ
CCOC(=O)C1OC1C(=O)N[C@@H](C)C(=O)OC(C)(C)C (stereo partly drawn) [EP-192, N-(3-ethoxycarbonyloxirane-2-carbonyl)-L-alanine-t-butyl ester] | 40.50 γ
O=CNCCCC[C@H](NC(=O)C1OC1C(=O)OCc1ccccc1)C(=O)OCc1ccccc1 (some centres unmarked) [EP-171] | 5.80 γ
COC(=O)[C@H]1O[C@@H]1C(=O)O (relative stereo) [EP-135, methyl hydrogen epoxysuccinate] | 12.20 γ
Cc1cccc(COC(=O)[C@@H]2O[C@H]2C(=O)O)c1Br (relative stereo) [EP-98, 2'-bromo-3'-methylbenzyl potassium epoxysuccinate] | 0.32 γ
O=C(O)[C@@H]1O[C@H]1C(=O)O[C@@H]1CCC[C@H]1Br (relative stereo) [EP-34, 2'-trans-bromocyclopentyl potassium epoxysuccinate] | 0.07 γ
Cc1cc(C)cc(COC(=O)[C@@H]2O[C@H]2C(=O)O)c1 (relative stereo) [EP-94, 3',5'-dimethylbenzyl potassium epoxysuccinate] | 0.27 γ
O=C(O)C1OC1C(=O)OC1CCCC(Br)C1 (stereo not drawn) [EP-10, 3'-cis-bromocyclohexyl potassium epoxysuccinate] | 0.06 γ
O=C(OC1CC2CCC1CC2)[C@@H]1O[C@H]1C(=O)OC1CC2CCC1CC2 (relative stereo) [EP-51, dibicyclo [2,2,2] octyl epoxysuccinate] | 0.30 γ
O=C(O[C@@H]1CCCC[C@H]1Cl)[C@@H]1O[C@H]1C(=O)O[C@@H]1CCCC[C@H]1Cl (relative stereo) [EP-7, di-2'-trans-chlorocyclohexyl epoxysuccinate] | 2.25 γ
C#CCOC(=O)C1OC1C(=O)N[C@@H](CCCCNC(=O)OCc1ccccc1)C(=O)OCc1ccccc1 (stereo partly drawn) [EP-165, N^α -(3-propargyloxycarbonyloxirane-2-carbonyl)-N^ε -carbobenzoxy-L-lysine benzyl ester] | 22.50 γ
CC1CCC(OC(=O)C2OC2C(=O)O)C1 (stereo not drawn) [EP-32, 3'-trans-methylcyclopentyl potassium epoxysuccinate] | 0.09 γ
COC(=O)[C@H](CCCNC(=O)OCc1ccccc1)NC(=O)C1OC1C(=O)[O-].[K+] (stereo partly drawn) [EP-198, N^α -(3-carboxyoxirane-2-carbonyl)-N^δ -carbobenzoxy-L-ornithine methyl ester potassium salt] | 0.15 γ
O=C(OCCC1CCCCC1)[C@@H]1O[C@H]1C(=O)OCCC1CCCCC1 (relative stereo) [EP-61, di-2-cyclohexaneethyl epoxysuccinate] | 1.18 γ
